Structures are written as SMILES. Numbering of substitutions follows the chain as printed.

These results are taken from PMC3336786 (The FASEB Journal, 2012).

In one experiment the target is T1, RDLT6'V (Drosophila melanogaster, UniProt P25123, T305V).
T1 sequence (P25123 45-606 T305V): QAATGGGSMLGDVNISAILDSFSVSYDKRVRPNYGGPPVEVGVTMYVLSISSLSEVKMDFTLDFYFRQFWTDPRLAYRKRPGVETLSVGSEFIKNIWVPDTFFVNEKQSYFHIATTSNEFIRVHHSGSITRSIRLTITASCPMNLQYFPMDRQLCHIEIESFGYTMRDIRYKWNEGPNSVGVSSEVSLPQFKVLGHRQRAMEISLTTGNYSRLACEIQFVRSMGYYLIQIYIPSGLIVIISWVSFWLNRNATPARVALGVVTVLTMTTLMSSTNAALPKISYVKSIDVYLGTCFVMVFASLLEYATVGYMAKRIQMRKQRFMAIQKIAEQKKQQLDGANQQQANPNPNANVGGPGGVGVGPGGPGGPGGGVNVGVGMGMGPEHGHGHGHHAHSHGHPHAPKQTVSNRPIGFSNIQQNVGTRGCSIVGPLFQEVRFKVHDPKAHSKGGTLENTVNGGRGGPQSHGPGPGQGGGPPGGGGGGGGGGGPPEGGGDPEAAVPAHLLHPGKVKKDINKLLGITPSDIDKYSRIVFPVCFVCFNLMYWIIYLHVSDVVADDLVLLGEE
Briefly: Two-electrode voltage clamp of RDLT6'V mutant receptors in Xenopus oocytes. Type of experiment: cell-based. In general terms: Two-electrode voltage clamp is typically applied to oocytes expressing channels or transporters.

A further experiment has as its target T2, RDLA2'V (Drosophila melanogaster, UniProt P25123, A301V).
T2 sequence (P25123 45-606 A301V): T1 sequence (P25123 45-606 T305V) with A257V, V261T
Kind of experiment: cell-based. Type of experiment: cell-based.

Consider `CC(C)(C)[C@]1(O)CC2OC(=O)CC23C(=O)OC2OC(=O)[C@H](O)C231` (stereo partly shown) [BB, bilobalide], for which the IC50 against RDLT6'V was more than 1000 µM; against RDLA2'V it was 224 µM.

As for `C[C@@H]1C(=O)O[C@H]2C[C@@]34[C@H]5C[C@@H](C(C)(C)C)[C@]36[C@@H](OC(=O)[C@@H]6O)O[C@@]4(C(=O)O5)[C@]21O` [GA, ginkgolide A], the IC50 against RDLT6'V is more than 1000 µM; against RDLA2'V, 360 µM.

A word on the IC50: it is the point on the concentration scale where inhibition reaches its midpoint. Read a low IC50 as inhibition by little substance.
